Data as given in US20200030342A1, “DEHYDROEPIANDROSTERONE (DHEA) SUPPL[…] FEMALE SEXUAL DESIRE AND FUNCTION IN PRE-[…]” (American Infertility of New York, P.C., priority 2018, published 2020).

How the values were obtained:
[1] = Center's experience with DHEA treatment of infertile patients: testosterone levels in response to DHEA or transdermal testosterone; format: in vivo, women
Text: One purpose of DHEA supplementation is raising testosterone levels. In other words, the biologically active hormone is testosterone. Its application, however, has more side effects. But some patients have a hard time converting DHEA to testosterone [Shohat-Tal A, Sen A, Barad D H, Kushnir V, Gleicher N. Genetics of androgen metabolism in women with infertility and hypoandrogenism. Nat Rev Endocrinol 2015; 11(7):429-441] and, therefore, must be treated directly with testosterone. The testosterone dosage is 0.05 mg transdermal by pump between once to 2-times per day for the same time period that DHEA supplementation dosages are taken. The peripheral testosterone levels and SHBG in blood are monitored and adjusted accordingly. Sex hormone binding globulin (SHBG) is a protein that is produced by the liver and binds tightly to the hormones testosterone, dihydrotestosterone (DHT), and estradiol (an estrogen). If patients require testosterone directly, the DHEA supplementation is still continued.

[2] = test system: premenopausal infertile women; experiment: Female Sexual Function Index (FSFI) questionnaire before and after DHEA supplementation, observational study; format: in vivo
Procedure: An observational study was conducted in an academically affiliated private fertility center. Patients included 87 premenopausal infertile women, 50 of whom completed the study including the Female Sexual Function Index (FSFI) questionnaires and comprehensive endocrine evaluation before and 4-8 weeks after initiating 25 mg of oral micronized DHEA TID. An example of a FSFI questionnaire is in a FSFI Scoring Appendix at the end of this patent application together with a discussion as to the manner of determining FSFI domain scores and full-scale score, which establish FSFI baselines.
(§1) All patients in the study were asked to complete the self-reported Female Sexual Function Index (FSFI) questionnaire^31 prior to initiation to DHEA supplements and again 4-8 weeks later. The patients' fertility treatments were not affected by their participation in this study, in laboratory investigations, and/or timing of procedures. Patients underwent the same standard endocrine evaluations all patients undergo at the Center for Human Reproduction, including measurement of serum androgen levels: DHEA, DHEAS, total (TT) and free testosterone (FT) before, and 4-8 weeks after, initiating 25 mg of oral DHEA supplementation TID. All here presented hormone levels were obtained by commercial assays (LabCorp, Burlington, N.C.). All androgen levels were measured using high-pressure liquid chromatography/tandem mass spectrometry.
Pearson correlation was used to investigate relationships between FSFI scores and patient demographics, as well as, hormone levels. Comparisons of FSFI scores and endocrine parameters before—and after—DHEA supplementation were made using paired T-tests. Based on starting FSFI scores patients were further subdivided into quartiles. Patient responses before and after DHEA supplementation from those in lowest and highest quartiles were then compared. Groups were compared using a two-sampled T-test or chi-square test. A P-value <0.05 was considered significant. All analyses were conducted using SAS version 9.4 (SAS Institute Inc. Cary, N.C.).
The individual domain scores and full scale (overall) score of the FSFI can be derived from the computational formula outlined in the table below. For individual domain scores, add the scores of the individual items that comprise the domain and multiply the sum by the domain factor (see below). Add the six domain scores to obtain the full scale score. […] Subject scores can be entered in the right-hand colum.

[3] = Endocrine evaluation: serum hormone levels before and after DHEA supplementation; format: in vivo, women
Text: as §1
The measurement procedures for measuring serum androgen and FSH are conventional. The formulation for an oral dosage of DHEA is conventional.

[4] = Baseline FSFI Score < 25.7, N = 12
[5] = Baseline FSFI Score ≥ 31.9, N = 13
[6] = lowest starting FSFI score quartile (<25.7)
[7] = whole group N=50, DHEA 25 mg TID 4-8 weeks, mean change
[8] = whole group N=50, DHEA 25 mg TID 4-8 weeks, mean change of domain score

In the case of C[C@]12CC[C@H]3[C@@H](CCC4=CC(=O)CC[C@@]43C)[C@@H]1CC[C@@H]2O [testosterone], the “Testosterone levels achieved in patients not responding to DHEA” value ([1]; 0.05 mg transdermal by pump once to 2-times per day, same time period) was “very similar testosterone levels are achieved”.

With C[C@]12CC[C@H](O)CC1=CC[C@@H]1[C@@H]2CC[C@]2(C)C(=O)CC[C@@H]12 [DHEA, dehydroepiandrosterone] the “Δ Arousal” value [2, 4] was 1.3±1.7, the “Δ Desire” value [2, 4] was 1.0±0.8 and the “Δ Lubrication” value [2, 4] was 0.8±2.3. For the same molecule, the “Δ Orgasm” value [2, 4] was 1.0±2.3, the “Δ Pain” value [2, 4] was 0.9±2.3 and the “Δ Satisfaction” value [2, 4] was 0.9±1.3. The “Δ Arousal” value [2, 5] was −0.2 ± 0.5, the “Δ Desire” value [2, 5] was −0.1 ± 0.6 and the “Δ Lubrication” value [2, 5] was −0.1 ± 0.6. For the same molecule, the “Δ Orgasm” value [2, 5] was −0.5 ± 1.1, the “Δ Pain” value [2, 5] was −0.1 ± 0.4 and the “Δ Satisfaction” value [2, 5] was 0.0 ± 0.7. The “Δ FSFI Score” value ([2]; highest starting FSFI quartile, Baseline FSFI Score ≥ 31.9, N = 13, DHEA 25 mg TID 4-8 weeks) was −1.0 ± 2.7, the “Δ FSFI Score” value ([2]; lowest starting FSFI quartile, Baseline FSFI Score < 25.7, N = 12, DHEA 25 mg TID 4-8 weeks) was 6.1±8.0 and the “Improvement in domain arousal” value [2, 6] was 46%. The “Improvement in domain desire” value [2, 6] was 40%, the “Improvement in domain lubrication” value [2, 6] was 33% and the “Improvement in domain orgasm” value [2, 6] was 54%. For the same molecule, the “Improvement in domain pain” value [2, 6] was 25%, the “Improvement in domain satisfaction” value [2, 6] was 24% and the “Increase in total FSFI score” value [2, 6] was 34%. The “Δ Arousal: Confidence” value [2, 7] was 0.4, the “Δ Arousal: Frequency” value [2, 7] was 0.3 and the “Δ Arousal: Level” value [2, 7] was 0.4. The “Δ Arousal: Satisfaction” value [2, 7] was 0.4, the “Δ Desire: Frequency” value [2, 7] was 0.5 and the “Δ Desire: Level” value [2, 7] was 0.5. The “Δ Lubrication: Difficulty (first line)” value [2, 7] was 0.3, the “Δ Lubrication: Difficulty (second line, after Maintaining)” value [2, 7] was 0.2 and the “Δ Lubrication: Frequency” value [2, 7] was 0.3. The “Δ Lubrication: Maintaining” value [2, 7] was 0.3, the “Δ Orgasm: Difficulty” value [2, 7] was 0.1 and the “Δ Orgasm: Frequency” value [2, 7] was 0.0. The “Δ Orgasm: Satisfaction” value [2, 7] was 0.1, the “Δ Pain: During” value [2, 7] was 0.3 and the “Δ Pain: Following” value [2, 7] was 0.2. For the same molecule, the “Δ Pain: Level” value [2, 7] was 0.0, the “Δ Satisfaction: Closeness” value [2, 7] was 0.3 and the “Δ Satisfaction: Overall” value [2, 7] was 0.3. For the same molecule, the “Δ Satisfaction: Relationship” value [2, 7] was 0.2, the “Δ Arousal” value [2, 8] was 0.5 and the “Δ Desire” value [2, 8] was 0.6. The “Δ Lubrication” value [2, 8] was 0.4, the “Δ Orgasm” value [2, 8] was 0.1 and the “Δ Pain” value [2, 8] was 0.2. For the same molecule, the “Δ Satisfaction” value [2, 8] was 0.3, the “Δ FSFI Score” value ([2]; whole group, 50 premenopausal infertile women, oral micronized DHEA 25 mg TID, before vs 4-8 weeks after, mean) was 2.0 and the “Domain score for arousal, increase” value ([2]; whole study group) was 12%. The “Domain score for desire, increase” value ([2]; whole study group) was 17%, the “Domain score for orgasm, change” value ([2]; whole study group) was “no significant changes” and the “Domain score for pain, change” value ([2]; whole study group) was “no significant changes”. The “Domain score for satisfaction, change” value ([2]; whole study group) was “no significant changes”, the “Domain score for lubrication, trend towards improvement” value ([2]; whole study group, P=0.0551) was 8% and the FSFI score increase ([2]; whole study group, following DHEA supplementation) was 7%. For the same molecule, the “FSFI score after DHEA supplementation” value ([2]; whole study group, from baseline 27.2±6.9) was 29.2±5.6, the “Δ Hormone: AMH” value [3, 4] was 0.0 ± 0.6 ng/mL and the “Δ Hormone: Cortisol” value [3, 4] was 2.5 ± 1.6 µg/dL. The “Δ Hormone: DHEA” value [3, 4] was 291.0 ± 227.7 ng/dL, the “Δ Hormone: FSH” value [3, 4] was −3.6 ± 2.6 mIU/mL and the “Δ Hormone: Free Testosterone” value [3, 4] was 1.8 ± 1.3 pg/mL. The “Δ Hormone: SHBG” value [3, 4] was -15.8 ± 41.1 nmol/L, the “Δ Hormone: Total Testosterone” value [3, 4] was 16.4 ± 18.5 ng/dL and the “Δ Hormone: AMH” value [3, 5] was 0.1 ± 0.6 ng/mL. The “Δ Hormone: Cortisol” value [3, 5] was -0.4 ± 5.5 µg/dL, the “Δ Hormone: DHEA” value [3, 5] was 275.7 ± 186.6 ng/dL and the “Δ Hormone: FSH” value [3, 5] was −1.6 ± 3.5 mIU/mL. The “Δ Hormone: Free Testosterone” value [3, 5] was 0.5 ± 1.4 pg/mL, the “Δ Hormone: SHBG” value [3, 5] was -21.0 ± 51.6 nmol/L and the “Δ Hormone: Total Testosterone” value [3, 5] was 11.8 ± 18.6 ng/dL. The “Δ Hormone: AMH” value [3, 7] was 0.0 ng/mL, the “Δ Hormone: Cortisol” value [3, 7] was 1.3 µg/dL and the “Δ Hormone: FSH” value [3, 7] was −2.6 mIU/mL. For the same molecule, the “Δ Hormone: Free Testosterone” value [3, 7] was 1.4 pg/mL, the “Δ Hormone: SHBG” value [3, 7] was -24.0 nmol/L and the “Δ Hormone: Total Testosterone” value [3, 7] was 15.1 ng/dL. The “Δ Hormone: DHEA” value ([3]; whole group N=50, DHEA 25 mg TID 4-8 weeks, mean change of serum level) was 235.1 ng/dL, the “AMH levels, change” value ([3]; whole study group) was “no change” and the “Cortisol levels, change” value ([3]; whole study group) was “no change”. For the same molecule, the “FSH levels, decrease from baseline” value ([3]; whole study group, baseline 10.3±5.4 mIU/mL) was 2.6±4.4 mIU/mL, the “SHBG, decrease from baseline” value ([3]; whole study group, baseline 92.7±43.2 nmol/L) was 24.0 ± 39.4 nmol/L and the “All serum androgen levels (DHEA, DHEAS, TT, FT), change from baseline” value ([3]; whole study group, each P<0.0001) was “increased”. For the same molecule, the “Patients who do not raise their testosterone levels in response to DHEA supplementation” value ([1]; infertile patients overall, a little more among African-descent women) was “less than 5%”.
